Assays:
[1] = Inhibition of Sprague-Dawley rat cytosolic alcohol dehydrogenase
[2] = molecular target: T1, Aldehyde dehydrogenase, cytosolic 1 (Rattus norvegicus, UniProt P13601); assay: Inhibition of Sprague-Dawley rat cytosolic aldehyde dehydrogenase
T1 sequence (P13601 whole entry): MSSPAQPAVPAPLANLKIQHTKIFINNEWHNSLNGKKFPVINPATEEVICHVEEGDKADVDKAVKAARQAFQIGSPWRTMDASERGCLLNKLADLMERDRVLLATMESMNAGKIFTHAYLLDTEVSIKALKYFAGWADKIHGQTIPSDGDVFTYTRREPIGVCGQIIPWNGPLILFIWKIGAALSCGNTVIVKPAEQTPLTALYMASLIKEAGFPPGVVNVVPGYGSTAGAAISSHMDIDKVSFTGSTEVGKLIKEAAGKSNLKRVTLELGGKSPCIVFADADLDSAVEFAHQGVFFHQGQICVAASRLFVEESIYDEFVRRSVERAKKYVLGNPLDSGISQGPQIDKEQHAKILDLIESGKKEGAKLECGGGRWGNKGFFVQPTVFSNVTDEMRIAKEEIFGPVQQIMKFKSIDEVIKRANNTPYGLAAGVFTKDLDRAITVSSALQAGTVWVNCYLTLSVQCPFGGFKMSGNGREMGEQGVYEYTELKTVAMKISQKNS

[3] = molecular target: T2, Aldehyde dehydrogenase, mitochondrial (Rattus norvegicus, UniProt P11884); assay: Inhibition of Sprague-Dawley rat mitochondrial aldehyde dehydrogenase
T2 sequence (P11884 whole entry): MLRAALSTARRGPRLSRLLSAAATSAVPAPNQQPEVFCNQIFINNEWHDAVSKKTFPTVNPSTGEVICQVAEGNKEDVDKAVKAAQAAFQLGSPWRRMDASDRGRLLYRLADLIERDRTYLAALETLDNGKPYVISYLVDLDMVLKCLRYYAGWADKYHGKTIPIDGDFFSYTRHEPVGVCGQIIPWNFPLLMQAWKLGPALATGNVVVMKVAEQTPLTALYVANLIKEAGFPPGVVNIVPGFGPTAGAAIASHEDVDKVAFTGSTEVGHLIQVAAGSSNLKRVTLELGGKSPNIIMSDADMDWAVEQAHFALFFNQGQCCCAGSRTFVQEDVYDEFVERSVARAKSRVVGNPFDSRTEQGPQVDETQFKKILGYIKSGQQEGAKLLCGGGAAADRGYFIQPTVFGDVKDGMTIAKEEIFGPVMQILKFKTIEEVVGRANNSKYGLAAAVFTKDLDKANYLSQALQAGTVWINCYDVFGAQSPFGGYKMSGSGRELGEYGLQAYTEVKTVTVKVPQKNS

IC50 [1] [µM]	IC50 [2] [µM]	IC50 [3] [nM]	SMILES
0.055	0.16	360	O=C1c2cc(CO)cc(O)c2C(=O)c2c1ccc(C1(C3O[C@H](CO)[C@@H](O)[C@H](O)[C@H]3O)c3cccc(O)c3C(=O)c3c(O)cc(CO)cc31)c2O (stereo partly drawn) [listing 1 of 2 here]
0.011	0.53	720	O=C1c2cc(CO)cc(O)c2C(=O)c2c1ccc(C1(C3O[C@H](CO)[C@@H](O)[C@H](O)[C@H]3O)c3cccc(O)c3C(=O)c3c(O)cc(CO)cc31)c2O (stereo partly drawn) [listing 2 of 2 here]
9.8	–	–	c1cn[nH]c1 [PYRAZOLE]
–	300	5600	C#CCN(C)Cc1ccccc1 [PARGYLINE]
33.1	27	–	COc1cc(-c2c(C)cc(O)cc2O[C@@H]2O[C@@H](CO)[C@@H](O)[C@H](O)[C@H]2O)oc(=O)c1 [ALOENIN]

SMILES	IC50 [1] [µM]	IC50 [2] [µM]	IC50 [3] [nM]
O=C1c2cccc(O)c2C(=O)c2c(O)cc(CO)cc21 [ALOE-EMODIN]	24.4	6	–
